Measured values published in ChEMBL document CHEMBL4152375, “Compromising the plasma membrane as a secondary target in photodynamic therapy-induced necrosis” (Bioorg Med Chem, 2018).
Active and inactive are the calls of the source. The calls are words filed in the database; no cut-off is given here.

Assays:
CHO [1] = assay: Induction of plasma membrane-mediated necrosis in EthD1-labelled CHO cells assessed as swelling of nuclei at 1 uM incubated for overnight followed by compound washout and subsequent 150W irradiation for 30 secs by fluorescence microscopic analysis; assay type: functional, cell-based; conditions: Cricetulus griseus
[2] = Dark toxicity in CHO cells at 1 uM incubated for overnight followed by compound washout by fluorescence microscopic analysis; assay type: cell-based, Cricetulus griseus; conditions: chinese hamster
[3] = Drug uptake in endosome of CHO cells at 1 uM incubated for overnight followed by compound washout measured by fluorescence microscopic analysis; assay type: ADME, subcellular, Cricetulus griseus; conditions: chinese hamster
CHO [4] = assay: Induction of plasma membrane-mediated necrosis in CHO cells assessed as swelling of nuclei at 1 uM incubated for overnight followed by compound washout and subsequent 150W irradiation for 30 secs by fluorescence microscopic analysis; assay type: functional, cell-based; conditions: Cricetulus griseus
CHO [5] = assay: Induction of plasma membrane-mediated necrosis in CHO cells at 1 uM incubated for overnight followed by compound washout with PBS 5% FBS and subsequent 150W irradiation for 30 secs by fluorescence microscopic analysis; assay type: functional, cell-based; conditions: Cricetulus griseus
[6] = Drug uptake in lysosome of fluorescein-dextran-labelled CHO cells at 1 uM incubated for overnight followed by compound washout measured by fluorescence microscopic analysis; assay type: ADME, subcellular, Cricetulus griseus; conditions: chinese hamster
CHO [7] = assay: Induction of plasma membrane-mediated necrosis in EthD1-labelled CHO cells at 1 uM incubated for two hrs at 4 degC followed by compound washout and subsequent 150W irradiation for 30 secs by fluorescence microscopic analysis; assay type: functional, cell-based; conditions: Cricetulus griseus
[8] = Drug uptake in endosome of fluorescein-dextran-labelled CHO cells at 1 uM incubated for overnight followed by compound washout measured by fluorescence microscopic analysis; assay type: ADME, subcellular, Cricetulus griseus; conditions: chinese hamster

- Drug uptake [3]: Active
- Drug uptake [6]: Active
- Drug uptake [8]: Active
Structure (SMILES): CN1CC2c3nc(c(-c4c(F)c(F)c(S[C@@H]5O[C@H](CO)[C@@H](O)[C@H](O)[C@H]5O)c(F)c4F)c4ccc([nH]4)c(-c4c(F)c(F)c(S[C@@H]5O[C@H](CO)[C@@H](O)[C@H](O)[C@H]5O)c(F)c4F)c4nc(c(-c5c(F)c(F)c(S[C@@H]6O[C@H](CO)[C@@H](O)[C@H](O)[C@H]6O)c(F)c5F)c5ccc([nH]5)c3-c3c(F)c(F)c(S[C@@H]5O[C@H](CO)[C@@H](O)[C@H](O)[C@H]5O)c(F)c3F)C=C4)C2C1 (stereo partly drawn)
- Activity (CHO [1]): Active
- Activity [2]: Non-Toxic
- Activity (CHO [4]): Active
- Activity (CHO [5]): inactive
- Activity (CHO [7]): Active
